Columns and labels:
AXL = target: T1, AXL (Homo sapiens, UniProt P30530); assay: TR-FRET kinase activity assay, AXL; format: biochemical; details: ATP at Km, 60 minutes
T1 sequence (P30530 26-894): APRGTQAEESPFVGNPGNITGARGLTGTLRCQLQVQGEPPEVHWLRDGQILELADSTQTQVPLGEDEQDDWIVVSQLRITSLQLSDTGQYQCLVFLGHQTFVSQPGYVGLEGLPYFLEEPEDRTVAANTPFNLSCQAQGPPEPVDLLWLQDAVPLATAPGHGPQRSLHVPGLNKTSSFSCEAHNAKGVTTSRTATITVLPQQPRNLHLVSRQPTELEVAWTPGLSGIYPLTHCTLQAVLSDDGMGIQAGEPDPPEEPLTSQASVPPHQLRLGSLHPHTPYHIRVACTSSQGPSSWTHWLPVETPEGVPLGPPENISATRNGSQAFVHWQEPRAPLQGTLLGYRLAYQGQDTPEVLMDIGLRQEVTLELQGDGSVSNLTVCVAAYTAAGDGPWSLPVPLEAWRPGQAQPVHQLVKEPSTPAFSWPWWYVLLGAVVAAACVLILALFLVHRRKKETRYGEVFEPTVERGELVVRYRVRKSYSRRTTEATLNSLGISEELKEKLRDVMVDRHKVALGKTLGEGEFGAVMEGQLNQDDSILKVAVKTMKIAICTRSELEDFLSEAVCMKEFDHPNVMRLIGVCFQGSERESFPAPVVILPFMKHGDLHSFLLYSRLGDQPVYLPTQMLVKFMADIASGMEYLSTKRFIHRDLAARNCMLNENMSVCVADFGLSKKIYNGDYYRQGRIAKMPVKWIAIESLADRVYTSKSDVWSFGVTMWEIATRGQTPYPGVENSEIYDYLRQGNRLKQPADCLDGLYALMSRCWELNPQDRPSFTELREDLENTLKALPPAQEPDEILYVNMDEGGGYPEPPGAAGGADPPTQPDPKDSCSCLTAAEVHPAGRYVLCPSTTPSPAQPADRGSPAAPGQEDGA
In short: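 Each kinase phosphorylated a fluorescent-labelled tyrosine peptide in 50 mM HEPES pH 7.5, 10 mM MgCl2, 1 mM EGTA, 0.01% Brij 35, 1 mM DTT at RT, with ATP at Km for that enzyme. After 60 min, EDTA quench and Eu-anti-phosphotyrosine antibody (30 min, dark); IC50 from TR-FRET decrease.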

TYRO3 = target: T2, TYRO3 (Homo sapiens, UniProt Q06418); assay: TR-FRET kinase activity assay, TYRO3; format: biochemical; details: ATP at Km, 60 minutes
T2 sequence (Q06418 41-890): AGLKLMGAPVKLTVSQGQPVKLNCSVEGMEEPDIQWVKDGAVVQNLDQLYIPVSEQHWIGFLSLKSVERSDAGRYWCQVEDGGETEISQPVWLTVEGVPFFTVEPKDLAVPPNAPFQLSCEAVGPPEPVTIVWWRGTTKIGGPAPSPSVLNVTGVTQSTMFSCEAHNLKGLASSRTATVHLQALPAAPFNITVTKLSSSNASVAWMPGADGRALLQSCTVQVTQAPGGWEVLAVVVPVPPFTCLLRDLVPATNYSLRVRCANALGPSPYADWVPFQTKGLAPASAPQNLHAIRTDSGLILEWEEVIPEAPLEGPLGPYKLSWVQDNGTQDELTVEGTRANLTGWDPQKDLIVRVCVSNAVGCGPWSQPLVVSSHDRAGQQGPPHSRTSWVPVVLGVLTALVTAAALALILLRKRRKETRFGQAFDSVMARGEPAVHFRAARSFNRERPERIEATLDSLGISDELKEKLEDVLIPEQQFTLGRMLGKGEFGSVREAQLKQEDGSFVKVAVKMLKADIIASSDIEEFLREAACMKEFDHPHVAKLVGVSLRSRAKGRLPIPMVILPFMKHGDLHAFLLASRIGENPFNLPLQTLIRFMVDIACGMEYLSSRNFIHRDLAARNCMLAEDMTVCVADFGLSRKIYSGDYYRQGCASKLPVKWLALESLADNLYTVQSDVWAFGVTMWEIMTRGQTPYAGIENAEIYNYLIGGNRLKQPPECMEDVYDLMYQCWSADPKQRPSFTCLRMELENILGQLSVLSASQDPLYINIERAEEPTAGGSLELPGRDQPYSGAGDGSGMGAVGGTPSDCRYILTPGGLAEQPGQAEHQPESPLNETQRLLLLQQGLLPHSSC
Method: IC50 values for compound inhibition of AXL, FLT3, MERTK and TYRO3 activity were determined by using a TR-FRET activity assay. A polypeptide substrate with a fluorescent label is phosphorylated on a tyrosine by each enzyme, where the now phosphorylated product is bound by a Europium-labeled antibody specific to that phosphorylation site. The proximity between the antibody and the substrate gives a signal known as TR-FRET. As the enzyme is inhibited by compound, less phosphorylated peptide product is made causing a decrease in overall signal.
Activity assays were performed in a 384-well, small volume, black microplates in an active enzyme volume of 10 μL and final developed volume of 20 μL. Final assay conditions are 50 mM HEPES pH 7.5, 10 mM MgCl2, 1 mM EGTA, 0.01% Brij 35 and 1 mM DTT all at RT. Enzyme, substrate labeled peptide and compound are mixed, and then the reaction is initiated with the addition of ATP at Km concentration for each enzyme. The reaction is allowed to run 60 minutes and then quenched with a 12.5 mM EDTA (ethylenediamine tetraacetic acid) solution. The plate is then developed with the addition of Europium labeled antibody for a final volume of 20 μL and is then incubated for 30 minutes in darkness. Plates are read in a Pherastar plate reader. Data is analyzed in GraphPad PRISM.
The results of these assays are shown in Table 1, below, wherein “No.” designates compound number (FIG. 1); “A” represents a value of ≤100 nM; “B” a value of >100 nM and ≤1 μM; “C” a value of >1 μM and ≤10 μM; “D” a value of >10 μM; “ND” is not determined. The ratio of Mer to FLT3 is calculated as follows: FLT3 IC50/Mer IC50. “+” represents a ratio of >2.0 and <10; “++” represents a ratio of between 10 and 100; and “+++” represents a ratio of >100.

| SMILES | IC50 (AXL) | IC50 (TYRO3) |
| --- | --- | --- |
| COC[C@H](C)Nc1ncc2c(-c3cnc(C)o3)cc([C@H]3CC[C@H](O)CC3)n2n1 [Compound 261] | 100 to 1000 nM | ≤ 100 nM |
| CNC(=O)c1ccc(-c2cc([C@H]3CC[C@H](O)CC3)n3nc(N[C@@H](C)CC(F)(F)F)ncc23)cn1 [Compound 263] | ≤ 100 nM | ≤ 100 nM |
| COC[C@H](C)Nc1ncc2c(-c3cnn(C(C)(C)CO)c3)cc([C@H]3CC[C@H](O)CC3)n2n1 [Compound 265] | ≤ 100 nM | ≤ 100 nM |
| COC[C@H](C)Nc1ncc2c(-c3cnn(CC4(C#N)CC4)c3)cc([C@H]3CC[C@H](O)CC3)n2n1 [Compound 266] | ≤ 100 nM | ≤ 100 nM |
| COC[C@H](C)Nc1ncc2c(-c3cnnc(C)c3)cc([C@H]3CC[C@H](O)CC3)n2n1 [Compound 267] | 100 to 1000 nM | ≤ 100 nM |
| C[C@@H](COC(F)F)Nc1ncc2c(-c3cnn(C4COC4)c3)cc([C@H]3CC[C@H](O)CC3)n2n1 [Compound 270] | ≤ 100 nM | ≤ 100 nM |
| COC[C@H](C)Nc1ncc2c(-c3ccc(N4CCN(C)CC4)nc3)cc([C@H]3CC[C@H](O)CC3)n2n1 [Compound 271] | ≤ 100 nM | ≤ 100 nM |

Continued, values first:

| IC50 (AXL) | IC50 (TYRO3) | SMILES |
| --- | --- | --- |
| ≤ 100 nM | ≤ 100 nM | COCCn1cc(-c2cc([C@H]3CC[C@H](O)CC3)n3nc(N[C@@H](C)CC(F)(F)F)ncc23)cn1 [Compound 262] |
| ≤ 100 nM | ≤ 100 nM | COC[C@H](C)Nc1ncc2c(-c3cnn(CC(C)(C)O)c3)cc([C@H]3CC[C@H](O)CC3)n2n1 [Compound 264] |
| 100 to 1000 nM | ≤ 100 nM | Cc1cc(-c2cc([C@H]3CC[C@H](O)CC3)n3nc(N[C@@H](C)CC(F)(F)F)ncc23)cnn1 [Compound 268] |
| ≤ 100 nM | ≤ 100 nM | C[C@@H](CC(F)(F)F)Nc1ncc2c(-c3cnn(C4COC4)c3)cc([C@H]3CC[C@H](O)CC3)n2n1 [Compound 269] |

— patent US11040981B2, “Pyrrolotriazine compounds and methods of inhibiting TAM kinases” (Syros Pharmaceuticals, Inc., priority 2017, dated 2021)
